Data: publication PMC8017969, “Redox regulation of NADP-malate dehydrogenase is vital for land plants under fluctuating light environment” (Proceedings of the National Academy of Sciences of the …, 2021)

Columns and labels:
MDHΔC = target: T1, MDHΔC (Arabidopsis thaliana, UniProt Q8H1E2); assay: NADPH oxidation monitored at […] nm, Michaelis-Menten fit; assay type: biochemical; settings: reduced enzyme (pretreated with Trx-f1 and DTT); 0-200 μM oxaloacetate, 100 μM NADPH, 0.01 μM MDH, pH 7.5, 50 mM NaCl, 25 °C
T1 construct: gene At5g58330; mature enzyme from Ser54 plus start Met, C-terminal extension from Cys430 to C terminus deleted, pET-23c, expressed in E. coli
T1 sequence (Q8H1E2 54-429): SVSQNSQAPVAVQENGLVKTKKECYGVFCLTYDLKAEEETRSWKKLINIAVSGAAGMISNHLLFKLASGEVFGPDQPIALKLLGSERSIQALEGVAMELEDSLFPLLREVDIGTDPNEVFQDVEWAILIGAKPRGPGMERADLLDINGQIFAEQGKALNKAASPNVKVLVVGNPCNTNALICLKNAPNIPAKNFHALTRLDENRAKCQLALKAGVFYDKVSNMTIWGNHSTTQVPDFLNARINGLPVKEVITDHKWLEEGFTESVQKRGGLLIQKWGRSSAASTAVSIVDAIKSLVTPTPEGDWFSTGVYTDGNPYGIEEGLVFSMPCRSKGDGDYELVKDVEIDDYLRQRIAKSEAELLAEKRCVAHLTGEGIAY

[1] = target: T2, MDHWT (chloroplast NADP-malate dehydrogenase) (Arabidopsis thaliana, UniProt Q8H1E2); assay: as above; assay type: biochemical; settings: reduced enzyme (pretreated with Trx-f1 and DTT); 0-200 μM oxaloacetate, 100 μM NADPH, 0.01 μM MDH, pH 7.5, 50 mM NaCl, 25 °C
T2 construct: gene At5g58330; mature enzyme from Ser54 plus start Met (transit peptide removed), pET-23c, expressed in E. coli, purified with added size exclusion step
T2 sequence (Q8H1E2 54-443): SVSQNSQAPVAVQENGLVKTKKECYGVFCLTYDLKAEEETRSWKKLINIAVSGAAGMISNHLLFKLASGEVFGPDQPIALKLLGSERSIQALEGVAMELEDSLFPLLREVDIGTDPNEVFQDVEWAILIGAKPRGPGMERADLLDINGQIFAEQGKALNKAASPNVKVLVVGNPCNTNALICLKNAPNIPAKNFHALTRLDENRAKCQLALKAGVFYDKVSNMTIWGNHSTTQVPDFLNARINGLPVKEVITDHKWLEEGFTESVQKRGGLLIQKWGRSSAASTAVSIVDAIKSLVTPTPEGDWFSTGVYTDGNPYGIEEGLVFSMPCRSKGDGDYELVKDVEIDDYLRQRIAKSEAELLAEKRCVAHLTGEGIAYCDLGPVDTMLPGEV

With O=C(O)CC(=O)C(=O)O [oxaloacetate] the “NADPH oxidation monitored at 340 nm, Michaelis-Menten fit” value (MDHΔC) was “Activities of recombinant MDHWT and MDHΔC” and the “NADPH oxidation monitored at 340 nm, Michaelis-Menten fit” value [1] was “Activities of recombinant MDHWT and MDHΔC”.
